# Results as given in US6710168B1, “Glycopeptide antibiotics, combinatorial libraries of glycopeptide antibiotics and methods of producing same” (The Trustees of the University of Princeton, priority 1999, dated 2004).
# Where two headings read alike, the source gives them in different places.
# Tests used:
# Format in all cases: cell-based
# [1] = tested on: Enterococcus faecium CL5137, VanA; test: MIC susceptibility test; conditions: for MIC: read-out: MIC CL5137
# [2] = tested on: Enterococcus faecalis CL5244, VanB; test: MIC susceptibility test; conditions: for MIC: read-out: MIC CL5244
# Protocol: (§1) Evaluation of vancomycin analogs is performed using in vitro susceptibility tests and a time-kill assay. [NCCL Standard, 1993] In susceptibility tests, five strains of bacteria, two of the most important: Staphylococcus aureus and Enterococcus faecalis (both susceptible and resistant strains), and Bacillus cereus are chosen and bacteria viability remaining in each well is evaluated using a colorimetric assay based on the tetrazolium salt 3-(4,5-dimethyl-2-thiazolyl)-2,5-diphenyl-2H tetrazolium bromide (MTT) and minimum inhibitory concentration (MIC) values are determined as μg/mL. [Mosmann, T. (1983); Damour, O., et al. (1992); Mikami, Y., et al. (1994)] This assay gives susceptibility information quickly, efficiently, and clearly.
# (§2) MICs are determined by the microdilution method using 96-well microplates. Samples are suspended with Cation Adjusted (20 to 25 mg of Ca^2+/mL and 10 to […] of Mg^2+) Mueller-Hinton broth (Difco Laboratories, Detroit, Mich.) and are two-fold diluted from 5 μg/mL to […] on microplates (12 step dilution). To each well, which contained 100 μL of cell suspension (10^6 CFU/mL), 100 μL of antibiotic solution is added and the plates are incubated at 37° C. for 24 h. 50 μL of MTT solution (1 mg/mL) is added to each well, then the plates are incubated under the same conditions (incubation time; 30 min for Bacillus cereus, Staphylococcus aureus, and Methicillin resistant Staphylococcus aureus; 2 hours for Enterococcus faecalis and Gentamicin, Streptmycin, Vancomycin Enterococcus faecalis). MTT is a yellow tetrazolium salt that is reduced by mitochondrial enzymes in viable cells to an insoluble blue formazan product. MIC values are evaluated by observing the lowest drug concentration to inhibit bacteria growth.
# [3] = tested on: Bacillus cereus (ATCC 11778); test: MIC susceptibility test, microdilution with MTT readout; conditions: for MIC BC: Bacillus ceres ATCC11778; for MIC: Bacillus cereus, ATCC11778, read-out: MIC BC
# Protocol: as §1
# (§3) All strains [Bacillus cereus (ATCC® 11778), Staphylococcus aureus (ATCC® 29213), Methicillin resistant Staphylococcus aureus (ATCC® 33591), Enterococcus faecalis (ATCC® 29212), and gentamicin, streptmycin, vancomycin resistant Enterococcus faecalis (ATCC® 51299), are purchased from REMEL (Lenexa, Kans.).
# as §2
# [4] = tested on: Staphylococcus aureus (ATCC 29213); test: as above
# Protocol: as §1, §3, §2
# [5] = tested on: Methicillin resistant Staphylococcus aureus (ATCC 33591); test: as above; conditions: for MIC: ATCC 3359 / ATCC 33591 / MRSA, read-out: MIC MRSA
# Protocol: as §1, §3, §2
# [6] = tested on: Enterococcus faecalis (ATCC 29212); test: as above
# Protocol: as §1, §3, §2
# [7] = tested on: gentamicin, streptmycin, vancomycin resistant Enterococcus faecalis (ATCC 51299); test: microbe, parasite or virus in culture; conditions: for MIC VREF: Enterococcus faecalis ATCC51299, vancomycin resistance; for MIC: Enterococcus faecalis, ATCC51299, read-out: MIC VREF
# Protocol: as §1, §3, §2
# [8] = Enterococcus faecium CL5137, VanA
# [9] = Enterococcus faecalis CL5244, VanB
# [10] = Staphylococcus aureus ATCC29213
# [11] = Staphylococcus aureus ATCC3359, Methicillin resistance
# [12] = Enterococcus faecalis ATCC29212
# [13] = Staphylococcus aureus ATCC29213, read-out: MIC SA
# [14] = Enterococcus faecalis ATCC29212, read-out: MIC EF
SMILES,"MIC CL5137 [1, 8]","MIC CL5244 [2, 9] [µg/mL]",MIC BC [3] [µg/mL],"MIC SA [4, 10]","MIC MRSA [5, 11]","MIC EF [6, 12] [µg/mL]",MIC VREF [7] [µg/mL],MIC ([1]; Enterococcus faecium) [µg/mL],MIC ([2]; Enterococcus faecalis) [µg/mL],MIC [3] [µg/mL],"MIC ([4]; Staphylococcus aureus, ATCC29213, read-out: MIC SA) [µg/mL]",MIC ([5]; Staphylococcus aureus) [µg/mL],"MIC ([6]; Enterococcus faecalis, ATCC29212, read-out: MIC EF) [µg/mL]",MIC [7] [µg/mL],"MIC [1, 8] [µg/mL]","MIC [2, 9] [µg/mL]","MIC [4, 13] [µg/mL]","MIC [5, 11] [µg/mL]","MIC [6, 14] [µg/mL]"
"CCCCCCCCCCNC1(C)CC(OC2C(Oc3c4cc5cc3Oc3ccc(cc3Cl)C(O)C3NC(=O)C(NC(=O)C5NC(=O)C(CC(N)=O)NC(=O)C(NC(=O)C(CC(C)C)NC)C(O)c5ccc(c(Cl)c5)O4)c4ccc(O)c(c4)-c4c(O)cc(O)cc4C(C(=O)O)NC3=O)OC(CNC(=O)c3cnc4ccccc4n3)C(O)C2O)OC(C)C1O (stereo not shown) [LI, Glucose-C6-N-2-quinoxaloyl-vancosamine-N-decyl Vancomycin]",6.3 µg/mL,0.2,2.5,5.0< μg/mL,5.0< μg/mL,0.63,1.3,,,,,,,,,,,,
"CN[C@H](CC(C)C)C(=O)N[C@H]1C(=O)N[C@@H](CC(N)=O)C(=O)N[C@H]2C(=O)N[C@H]3C(=O)N[C@H](C(=O)N[C@H](C(=O)O)c4cc(O)cc(O)c4-c4cc3ccc4O)[C@H](O)c3ccc(c(Cl)c3)Oc3cc2cc(c3OC2OC(CNC(=O)c3cnc4ccccc4n3)C(O)C(O)C2OC2CC(C)(NCc3ccc(-c4ccc(Cl)cc4)cc3)C(O)C(C)O2)Oc2ccc(cc2Cl)[C@H]1O (stereo partly shown) [LII, Glucose-C6-N-2-quinoxaloyl-vancosamine-N-4-(4-chlorophenyl)benzyl Vancomycin]",,,,,,,,3.2,0.2,1.9,5,5,0.08,0.16,,,,,
"CNC(CC(C)C)C(=O)NC1C(=O)NC(CC(N)=O)C(=O)NC2C(=O)NC3C(=O)NC(C(=O)NC(C(=O)O)c4cc(O)cc(O)c4-c4cc3ccc4O)C(O)c3ccc(c(Cl)c3)Oc3cc2cc(c3OC2OC(CSc3ccccc3)C(O)C(O)C2OC2CC(C)(N)C(O)C(C)O2)Oc2ccc(cc2Cl)C1O (stereo not shown) [LIV, Glucose-C6-thiophenyl Vancomycin]",50< μg/mL,13,1.3,1.0 µg/mL,0.63 µg/mL,1.3,2.5,,,,,,,,,,,,
"CN[C@@H](CC(C)C)C(=O)N[C@H]1C(=O)N[C@@H](CC(N)=O)C(=O)N[C@H]2C(=O)NC3C(=O)N[C@H](C(=O)N[C@@H](C(=O)O)c4cc(O)cc(O)c4-c4cc3ccc4O)[C@H](O)c3ccc(c(Cl)c3)Oc3cc2cc(c3OC2OC(CSc3ccc(Br)cc3)C(O)C(O)C2OC2CC(C)(N)C(O)C(C)O2)Oc2ccc(cc2Cl)[C@H]1O (stereo partly shown) [LIX, Glucose-C6-1-thio-4-bromobenzene Vancomycin]",,,,,,,,,,1.3,,,,0.32,> 50,6.3,0.63,1,1
"CNC(CC(C)C)C(=O)NC1C(=O)NC(CC(N)=O)C(=O)NC2C(=O)NC3C(=O)NC(C(=O)NC(C(=O)O)c4cc(O)cc(O)c4-c4cc3ccc4O)C(O)c3ccc(c(Cl)c3)Oc3cc2cc(c3OC2OC(CSc3cccc(Cl)c3)C(O)C(O)C2OC2CC(C)(N)C(O)C(C)O2)Oc2ccc(cc2Cl)C1O (stereo not shown) [LV, Glucose-C6-3-chlorothiophenyl Vancomycin]",50< μg/mL,3.2,0.63,0.48 µg/mL,0.32 µg/mL,0.63,0.63,,,,,,,,,,,,
"CNC(CC(C)C)C(=O)NC1C(=O)NC(CC(N)=O)C(=O)NC2C(=O)NC3C(=O)NC(C(=O)NC(C(=O)O)c4cc(O)cc(O)c4-c4cc3ccc4O)C(O)c3ccc(c(Cl)c3)Oc3cc2cc(c3OC2OC(CSc3nc(N)n[nH]3)C(O)C(O)C2OC2CC(C)(N)C(O)C(C)O2)Oc2ccc(cc2Cl)C1O (stereo not shown) [LVI, Glucose-C6-3-amino-5-mercapto-1,2,4-triazole Vancomycin]",50< μg/mL,1.6,1.0,0.48 µg/mL,0.63 µg/mL,0.63,0.63,,,,,,,,,,,,
"CNC(CC(C)C)C(=O)NC1C(=O)NC(CC(N)=O)C(=O)NC2C(=O)NC3C(=O)NC(C(=O)NC(C(=O)O)c4cc(O)cc(O)c4-c4cc3ccc4O)C(O)c3ccc(c(Cl)c3)Oc3cc2cc(c3OC2OC(Cn3ccnc3)C(O)C(O)C2OC2CC(C)(N)C(O)C(C)O2)Oc2ccc(cc2Cl)C1O (stereo not shown) [LVII, Glucose-C6-imidazole Vancomycin]",50< μg/mL,50,2.5,1.3 µg/mL,1.9 µg/mL,2.5,5.0,,,,,,,,,,,,
"CN[C@@H](CC(C)C)C(=O)N[C@H]1C(=O)N[C@@H](CC(N)=O)C(=O)N[C@H]2C(=O)NC3C(=O)N[C@H](C(=O)N[C@@H](C(=O)O)c4cc(O)cc(O)c4-c4cc3ccc4O)[C@H](O)c3ccc(c(Cl)c3)Oc3cc2cc(c3OC2OC(CSc3nnnn3C)C(O)C(O)C2OC2CC(C)(N)C(O)C(C)O2)Oc2ccc(cc2Cl)[C@H]1O (stereo partly shown) [LVIII, Glucose-C6-5-thio-1-methyl-tetrazole Vancomycin]",,,,,,,,,,1.3,,,,5,> 50,50,1.9,2.5,2.5
"CN[C@@H](CC(C)C)C(=O)N[C@H]1C(=O)N[C@@H](CC(N)=O)C(=O)N[C@H]2C(=O)NC3C(=O)N[C@H](C(=O)N[C@@H](C(=O)O)c4cc(O)cc(O)c4-c4cc3ccc4O)[C@H](O)c3ccc(c(Cl)c3)Oc3cc2cc(c3OC2OC(CSc3nccc(N)n3)C(O)C(O)C2OC2CC(C)(N)C(O)C(C)O2)Oc2ccc(cc2Cl)[C@H]1O (stereo partly shown) [LXI, Glucose-C6-2-thio-4-aminopyrimidine Vancomycin]",,,,,,,,,,0.63,,,,0.63,> 50,3.2,0.63,1.3,0.63
"CN[C@@H](CC(C)C)C(=O)N[C@H]1C(=O)N[C@@H](CC(N)=O)C(=O)N[C@H]2C(=O)NC3C(=O)N[C@H](C(=O)N[C@@H](C(=O)O)c4cc(O)cc(O)c4-c4cc3ccc4O)[C@H](O)c3ccc(c(Cl)c3)Oc3cc2cc(c3OC2OC(CSc3nc(N)cc(N)n3)C(O)C(O)C2OC2CC(C)(N)C(O)C(C)O2)Oc2ccc(cc2Cl)[C@H]1O (stereo partly shown) [LXII, Glucose-C6-6-thio-2,4-diaminopyrimidine Vancomycin]",,,,,,,,,,0.63,,,,1.3,> 50,6.3,1.9,2.5,1.3
